Patent US20240158355A1, “BET SUBFAMILY INHIBITORS AND METHODS USING SAME” (Baylor College of Medicine, priority 2021, published 2024)

Each molecule was assayed against BRDT-BD2 (Homo sapiens (Human), UniProt Q58F21) (assay: AlphaScreen bromodomain proximity assay (competition with biotinylated (+)-JQ1), BRDT-BD2).
Type: binding
`Cn1nc(-c2ccc(N)nc2)c2cc(C(=O)NC3CCNCC3)ccc21` [compound 53, 3-(6-Aminopyridin-3-yl)-1-methyl-N-(piperidin-4-yl)-1H-indazole-5-carboxamide] gave an IC50 greater than 200 nM. `Cn1nc(-c2ccc(N)nc2)c2cc(C(=O)Nc3cccc(C(=O)O)c3)ccc21` [compound 54, 3-(3-(6-Aminopyridin-3-yl)-1-methyl-1H-indazole-5-carboxamido)benzoic acid] showed an IC50 of 381 nM. Work on `Cc1ccc(NC(=O)c2ccc3c(c2)c(-c2ccc(N)cc2C)nn3C)cc1C(N)=O` [compound 56, 3-(4-Amino-2-methylphenyl)-N-(3-carbamoyl-4-methylphenyl)-1-methyl-1H-indazole-5-carboxamide] yielded an IC50 of 34 nM. `CNC(=O)c1cccc(NC(=O)c2ccc3c(c2)c(-c2ccc(N)cc2C)nn3C)c1` [compound 57, 3-(4-Amino-2-methylphenyl)-1-methyl-N-(3-(methylcarbamoyl)phenyl)-1H-indazole-5-carboxamide] showed an IC50 of 29 nM. `Cc1ccc(NC(=O)c2ccc3c(c2)c(-c2ccc(N)cc2C)nn3C)cc1NS(C)(=O)=O` [compound 58, 3-(4-Amino-2-methylphenyl)-1-methyl-N-(4-methyl-3-(methylsulfonamido)phenyl)-1H-indazole-5-carboxamide] gave an IC50 of 67 nM. Molecule `Cc1ccc(NC(=O)c2ccc3c(c2)c(-c2ccc(N)cc2C)nn3C)cc1` [compound 60, 3-(4-Amino-2-methylphenyl)-1-methyl-N-(p-tolyl)-1H-indazole-5-carboxamide] has an IC50 of 91 nM. `Cc1cc(N)ccc1-c1nn(C)c2ccc(C(=O)Nc3ccc(C(F)(F)F)cc3)cc12` [compound 61, 3-(4-Amino-2-methylphenyl)-1-methyl-N-(4-(trifluoromethyl)phenyl)-1H-indazole-5-carboxamide] gave an IC50 of 898 nM. Work on `CCOc1ccc(NC(=O)c2ccc3c(c2)c(-c2ccc(N)cc2C)nn3C)cc1` [compound 62, 3-(4-Amino-2-methylphenyl)-N-(4-ethoxyphenyl)-1-methyl-1H-indazole-5-carboxamide] yielded an IC50 of 48 nM. `Cc1cc(N)ccc1-c1nn(C)c2ccc(C(=O)Nc3ccc(F)cc3)cc12` [compound 63, 3-(4-Amino-2-methylphenyl)-N-(4-fluorophenyl)-1-methyl-1H-indazole-5-carboxamide] gave an IC50 of 101 nM. `Cc1cc(N)ccc1-c1nn(C)c2ccc(C(=O)Nc3ccc(Cl)cc3)cc12` [compound 64, 3-(4-Amino-2-methylphenyl)-N-(4-chlorophenyl)-1-methyl-1H-indazole-5-carboxamide] gave an IC50 of 209 nM. Work on `COc1ccc(NC(=O)c2ccc3c(c2)c(-c2ccc(NC(C)=O)cc2C)nn3C)cc1` [compound 66, 3-(4-Acetamido-2-methylphenyl)-N-(4-methoxyphenyl)-1-methyl-1H-indazole-5-carboxamide] yielded an IC50 greater than 10000 nM. `COc1ccc(NC(=O)c2ccc3c(c2)c(-c2cc4ccccc4n2C)nn3C)cc1Br` [compound 68, N-(3-Bromo-4-methoxyphenyl)-1-methyl-3-(1-methyl-1H-indol-2-yl)-1H-indazole-5-carboxamide] was tested, and the IC50 was 274 nM. Work on `COc1ccc(NC(=O)c2ccc3c(c2)c(-c2cc4ccccc4n2C)nn3C)cc1I` [compound 69, N-(3-Iodo-4-methoxyphenyl)-1-methyl-3-(1-methyl-1H-indol-2-yl)-1H-indazole-5-carboxamide] yielded an IC50 of 502 nM. Work on `COc1ccc(NC(=O)c2ccc3c(c2)c(-c2cc4ccccc4n2C)nn3C)cc1C(F)(F)F` [compound 70, N-(4-Methoxy-3-(trifluoromethyl)phenyl)-1-methyl-3-(1-methyl-1H-indol-2-yl)-1H-indazole-5-carboxamide] yielded an IC50 of 626 nM. For `COc1ccc(NC(=O)c2ccc3c(c2)c(-c2cc4ccccc4n2C)nn3C)cc1C#N` [compound 71, N-(3-Cyano-4-methoxyphenyl)-1-methyl-3-(1-methyl-1H-indol-2-yl)-1H-indazole-5-carboxamide], the IC50 was 168 nM.
